Measured values as given in patent publication US9000048B2, “Fluoropolymer-based emulsions for the intravenous delivery of fluorinated volatile anesthetics” (Wisconsin Alumni Research Foundation, priority 2006, dated 2015).
In brackets after ≈: the same amount, converted by molar mass.

Key:
[1] = in vivo; cited from earlier work
[2] = Emulsion droplet sizing and stability by dynamic light scattering and visual phase separation; assay type: physicochemical
Method: The emulsions were sized by dynamic light scattering prior to use. For these measurements, the emulsions were mixed by inversion of the centrifuge tube to eliminate inhomogeneity due to either flocculation or sedimentation. The emulsions were then diluted by a factor of 300 by adding 10 μL of the emulsion to 2.990 mL of 0.9% NaCl. Sizing was done by dynamic light scattering (NICOMP 380 ZLS, Particle Sizing Systems, Santa Barbara, Calif.) with a 639 nm laser at a scattering angle of 90°. Each sample was run for 15 min and all numbers are reported as Gaussian volume weighted. The emulsions were only used if the average diameter was less than 350 nm. This cutoff was established to ensure consistent physical characteristics of the emulsion and to prevent acute toxicity that can develop with increased particle size.^15 Additionally, the emulsion was filtered through a 0.45 μm nylon syringe filter. The final nano-emulsions are milky-white.
As a typical example, sevoflurane (Abbott Labs, N. Chicago, Ill., 3.4 mL) and perfluorooctyl bromide (SynQuest Laboratories, Inc., Alachua, Fla., 1.7 mL) were added to an aqueous 0.9% NaCl solution (11.9 mL) of F13M5 (298 mg, 25 mg/mL), for a total volume of 17 mL. The two-phase mixture was homogenized with a low energy mixer (Power Gen 500, Fisher Scientific, Hampton, N.H.) for 1 min at 21000 rpm at room temperature. The crude emulsion was further homogenized under high pressure (5000 psi, 1 min) using a Microfluidizer (model 110 S, Microfluidics Corp., Newton, Mass.) with the temperature maintained at 20.0° C. with a cooling bath. The product emulsions were stored in 15 mL sterile centrifuge tubes (Corning Inc., Corning, N.Y.) at 4° C. until use. All emulsions were prepared in this same manner with the requisite percentages of each component as necessary. Intralipid emulsions were prepared by adding sevoflurane to Intralipid (20%, Fresenius Kabi, Uppsala, Sweden) and then homogenizing and microfluidizing as above. […]

[3] = Solubility of perfluorotridecane in sevoflurane; assay type: physicochemical; conditions: organic solvent or mixture, read-out: maximum solubility of perfluorotridecane in sevoflurane
Text: If intercalation of perfluorotridecane between the perfluorocarbon blocks of F13M5 is the reason that phase separation occurred with sevoflurane, the same effect might be expected to happen when perfluorotridecane is used as an additive to stabilize emulsions of either FC-72 and perfluorooctyl bromide. […] The difference in emulsion stability is likely due to the different solubility of perfluorotridecane in the three fluorinated compounds. […] It is likely that the limited solubility of perfluorotridecane in sevoflurane led to its preferential adsorption at the interface, rather than at the center of the droplet. The greater solubility of perfluorotridecane in the other solvents allowed it to more easily reside in the center of the droplet and act truly as a secondary oil additive.

[4] = in vivo; cited from earlier work; remark: listed apart in the source
[5] = cited from earlier work
[6] = cited from earlier work; remark: listed apart in the source

Q: For FC(F)(F)C(F)(F)C(F)(F)C(F)(F)/C=C/C(F)(F)C(F)(F)C(F)(F)C(F)(F)F [bis-perfluorobutyl ethylene], which “circulatory half-time / half life in the body” value [1] is on record?
A: 170 h

Q: Which “ripening with different stabilizing additives” value [2] does the source give for FC1(F)C(F)(F)C(F)(F)C2(F)C(F)(F)C(F)(F)C(F)(F)C(F)(F)C2(F)C1(F)F (centres unmarked) [perfluorodecalin] here?
A: ripen similarly

Q: With FC(F)(Cl)C(F)(F)C(F)(F)C(F)(F)C(F)(F)C(F)(F)C(F)(F)C(F)(F)Cl [perfluorodichlorooctane] as the compound, how does the “circulatory half-time / half life in the body” value [1] read?
A: 170 h

Q: With FC(F)(F)C(F)(F)C(F)(F)C(F)(F)C(F)(F)C(F)(F)C(F)(F)C(F)(F)Br [perfluorooctyl bromide] as the compound, how does the “ripening with different stabilizing additives” value [2] read?
A: ripen similarly

Q: What about the “droplet size / Ostwald ripening with perfluorotridecane as the additive” value ([2]; 20% v/v primary oil, perfluorotridecane additive, 1.5% w/v F13M5) of the same compound?
A: the size stabilized and Ostwald ripening appeared to be stopped

Q: What about the “circulatory half-time / half life in the body” value [1] of the same compound?
A: four

Q: Which solubility [3] does the source give for FC(F)(F)C(F)(F)C(F)(F)C(F)(F)C(F)(F)C(F)(F)C(F)(F)C(F)(F)C(F)(F)C(F)(F)C(F)(F)C(F)(F)C(F)(F)F [perfluorotridecane] here?
A: 78 mg/mL (≈ 113 mM)

Q: With CC(C)c1cccc(C(C)C)c1O [propofol] as the compound, how does the “therapeutic index, previously published values” [4] read?
A: 3.1

Q: Which water solubility [5] does the source give for FCOC(C(F)(F)F)C(F)(F)F [sevoflurane] here?
A: 6 mM (≈ 1200 µg/mL)

Q: And the “maximum solubility of sevoflurane in 30% Intralipid” value ([6]; 30% Intralipid, gas equilibration)?
A: 3.46 % v/v

Q: What about the “maximum amount of sevoflurane that can be stably emulsified in Intralipid” value ([6]; Intralipid) of the same compound?
A: 3.5 % v/v

Q: And the “maximum of sevoflurane emulsified in Intralipid” value ([6]; in volume, non-fluorinated lipids (Intralipid))?
A: 3.6%

Q: Which “therapeutic index, previously published values” [4] does the source give for CCCC(C)C1(CC)C(=O)NC(=S)NC1=O (centres unmarked) [thiopental] here?
A: 2.2

Q: Which “circulatory half-time / half life in the body” value [1] does the source give for perfluoro(methyldecalin) here?
A: 264 h
